Source: article PMC4361473, “A New System for Profiling Drug-Induced Calcium Signal Perturbation in Human Embryonic Stem Cell–Derived Cardiomyocytes” (Journal of Biomolecular Screening, 2015)
Read-outs that look alike come from different tables or passages of the source.

Assays:
Cytiva hSCCMs [1] = assay: SALVO profiling of drug-evoked Ca2+ signal perturbation (fluo-4 confocal imaging); conditions: for Predicted proarrhythmic score (PPS): PPS = ETPCunbound/EC20
From the text: Cytiva hSCCMs were derived from monolayer differentiation of an H7 hESC cell line that had been expanded under feeder-free conditions and then subjected to a proprietary differentiation protocol (GE Healthcare, Piscataway, NJ, USA).[13] […] Cells were thawed and seeded into 7-mm^2 chambers created by the adherence of silicon gaskets (CultureWell MultiWell 3 mm in diameter, 1-mm-depth inserts [Life Technologies]) on glass-bottomed culture chambers (In Vitro Scientific, Sunnyvale, CA, USA) that had been precoated with Matrigel (BD Biosciences, Franklin Lakes, NJ, USA), Franklin Lakes, NJ, USA diluted 1:30 (v/v) in Knockout DMEM (Life Technologies, Carlsbad, CA, USA). […] Cells were allowed to adhere to the coverslip for 2 h before the dish was filled with RPMI/B27 (2 mL). Medium was exchanged every 48 h.
Cells were incubated with fluo-4 AM (5 µM) (Life Technologies) for 1 h at 37°C before coverslips were flooded with RPMI/B27 (2 mL). […] Cells were maintained at 37 °C throughout experiments. […] The application of caffeine (5 mM final concentration) was used to trigger sarcoplasmic reticulum (SR) Ca^2+ release and thereby estimate the intra-SR Ca^2+ store load.
Taking our lead from Uhlen’s method of using spectral analysis to investigate the organization of Ca^2+ signals,[14] we developed SALVO to decode the spatiotemporal patterning of Ca^2+ oscillations within individual cells and across multicellular populations. SALVO outputs 30 parameters that describe Ca^2+ signal organization,[15] but for the purposes of this study, we focused on five parameters: oscillation rate (rate, Hz) and four other parameters that quantify the amplitude and temporal patterning of Ca^2+ oscillation: (1) amplitude heterogeneity index (AHI) and (2) temporal heterogeneity index (THI), statistical assessments of signal amplitude and temporal variability within single cells, respectively; (3) intertransient noise (ITN), defined as the Ca^2+ signal variability occurring between Ca^2+ oscillations and that extends the use of signal variability (SV) to measure point-by-point differences in very low-amplitude Ca^2+ signals[6],[10],[12]; and (4) synchronization, an index of the temporal coincidence of Ca^2+ oscillation maxima occurring across cells in the population. The calculation of these parameters is described in Supplementary Figure S1. SALVO is implemented using a Python-based computer program.[15] The detection of signal maxima and minima over a 30-s period in data obtained from 6 to 20 cells in each instance was performed using SALVO’s autodetection algorithms (based on spline detect or threshold detection methods) or by manual assignation of the start, peak, and end of each Ca^2+ spike. SALVO outputs were archived and interrogated using a custom-built SQL-based database system (DB Miner, CHG, NCS, SBJ).
Baseline assessments of Ca^2+ signals in fluo-4–loaded cells prior to the addition of drug (control) were established as described above.
After each addition and following a period of equilibration (approximately 90 s), fluo-4–dependent Ca^2+ signals were acquired for 30 s. Using this protocol, the same population of cells was imaged throughout the entire drug addition sequence.
In all experiments, operators were blinded to the identities of the drugs under test throughout all phases of postexperimental data analysis.
Supplementary Table 2. EC20 values for Ca2+ perturbation.
Drug concentrations (nM) that produced a 20% change from control values (no drug) were calculated for each SALVO parameter from regression analysis of […]
The effective therapeutic plasma concentration of free drug (ETPCunbound, nM) was calculated in Supplementary Table 1.
Calculate percentage effect size (E) for each SALVO parameter, normalized to Ew = E x λ control conditions, at each drug concentration Effect size (E,%) λ
Cumulative Ew for drug concentrations of 0.1, 1, 10, 100 and 1000 nM for The relationship between E and λ is given by […]

Cytiva hSCCMs [2] = assay: Whole-cell current-clamp recording of spontaneous action potentials (APD90); format: cell-based, human; conditions: drug at EC20 concentration, 3 min; Fridericia-corrected; blebbistatin-immobilized cells
Procedure: Cells in 35-mm glass-bottomed culture dishes containing a superfusion insert (AutoMate PCP-1; Digitimer Ltd., Welwyn Garden City, UK) were mounted on the stage of an inverted microscope (CKX-41; Olympus, Tokyo, Japan) and were superfused with normal Tyrode (NT) solution (containing [in mM] NaCl, KCl, MgCl2 [1], CaCl2 [2], HEPES [10], glucose; pH 7.4 with NaOH) or NT-containing drugs maintained at 37 °C using a heated jacket.
Cells were whole-cell clamped with 3- to 4-MΩ patches and an intrapipette solution (containing in [mM] KCl, MgCl2 [1.75], CaCl2 [5.37], EGTA [10], HEPES [10], and Na2ATP [4]; pH 7.2 with KOH) in current-clamp (IC) mode using a CV-7B headstage and MultiClamp 700B amplifier controlled by MultiClamp software (Molecular Devices, Sunnyvale, CA). Data were digitized and acquired using a Digidata 1322a card and pClamp software, respectively (Molecular Devices). Action potentials were sampled at a rate of 20 kHz and low pass (Bessel) filtered at 10 kHz.
Spontaneous cell contracture was terminated using blebbistatin (5 µM, 10 min), an agent that inhibits myofilament shortening and thereby negates patch-clamp recording instability but preserves normal Ca^2+ cycling.[20] […] Action potential (AP) recordings from blebbistatin-immobilized cells were taken under control (no-drug) conditions (1 min) and following the switch to drug-containing NT. APD90, corrected for AP cycle length using Fridericia’s method (APD90(corr) = APD90/cycle length^[…]), was calculated from five consecutive APs following a 3-min exposure of the cells to drug.
Figure 4. Investigating the effect of cardiovascular-active drugs on Cytiva APD90. (A) Cells were exposed to drugs at EC20 concentrations for 3 min (Suppl. Table S2). APD90 values were corrected for beat period using Fridericia’s algorithm. Data points represent individual paired experiments (n = 6). Representative control (gray) and drug-treated (black) action potential traces are shown. (B) APD90 plotted as the percentage change relative to the paired control value (no drug). *p < 0.05. **p < 0.01.

[3] = Effective therapeutic plasma concentration (ETPC, ETPCunbound); format: in vivo, human; conditions: free plasma concentration calculated from ETPC and free drug %, Supplementary Table 1
From the text: There is also the issue regarding the relevance of drug potency determined in vitro to clinical dosing in humans. Guo and colleagues[25],[27] used an impedance-derived index of arrhythmic beating in hSCCMs to derive a predicted proarrhythmic score (PPS) that took into account the therapeutically relevant total concentration of drug in human plasma (defined as Ceff). More recently, Clements and Thomas[13] used a similar approach to generate a predictive risk score (PRS) based on their measurement of field potential duration (FPD) in Cytiva.
Supplementary Table 1. Calculating the free plasma concentration of […]
described by Redfern et al. (Redfern et al. (2003) Cardiovasc. Res. 58:32-45) was used to calculate the levels of free drug (ETPCunbound). ETPC for nadolol and valdecoxib were from Krukemyer et al. (Pharm. Res. (1990) 9:953-956) and Yuan et al. (Drug Metab. Disp. (2002) 30:1013-1021), respectively. The values for drug-protein binding were obtained from DrugBank (www.drugbank.ca).

[4] = maximal effective therapeutic plasma concentration, cited from earlier work
[5] = parameters: method as in DrugBank (www.drugbank.ca); conditions: from drug-protein binding values; ref DrugBank (www.drugbank.ca); cited from earlier work
[6] = cited from earlier work
[7] = 20% change from control in amplitude heterogeneity index, regression of Figure 3 data
[8] = 20% change from control in intercellular synchronization, regression of Figure 3 data
[9] = 20% change from control in intertransient noise, regression of Figure 3 data
[10] = 20% change from control in temporal heterogeneity index, regression of Figure 3 data
[11] = drug concentration producing a 20% change from control (no drug) in Ca2+ oscillation rate, regression of Figure 3 data
[12] = five-parameter SALVO output integrated over 0.1-1000 nM, normalized to control
[13] = spontaneously oscillating Cytiva, concentrations up to 30 µM
[14] = spontaneously oscillating Cytiva

Row | Compound | Effect on APD90 (action potential duration) (Cytiva hSCCMs [2]) | ETPCunbound [3] [nM] | EC20 AHI (Cytiva hSCCMs [1]; [7]) [µM] | EC20 Synch (Cytiva hSCCMs [1]; [8]) [µM] | EC20 ITN (Cytiva hSCCMs [1]; [9]) [µM] | EC20 THI (Cytiva hSCCMs [1]; [10]) [µM] | Predicted proarrhythmic score (PPS) (Cytiva hSCCMs [1]) | EC20 Rate (Cytiva hSCCMs [1]; [11]) [µM] | SALVO toxicity score, rank order of the extent of Ca2+ perturbation (Cytiva hSCCMs [1]; [12]) | Effect on Ca2+ handling (SALVO parameters) (Cytiva hSCCMs [1]; [13]) | other results
1 | O=C(NCC1CCCCN1)c1cc(OCC(F)(F)F)ccc1OCC(F)(F)F (centres unmarked) [Flecainide, flecainide] | no effect | 1159 | 0.26 | > 30 | 2.11 | 0.285 | elevated PPS | 0.215 | astemizole > thioridazine > cisapride > flecainide > valdecoxib > sotalol > nadolol | large effect sizes in multiple parameters | –
2 | CC(CC(c1ccccc1)c1ccccc1)NC(C)(C)C (centres unmarked) [terodiline] | – | – | – | – | – | – | – | – | – | – | TdP risk category ([6]; categories assigned by Redfern and colleagues): category 2
3 | COc1ccc(CCN(C)CCCC(C#N)(c2ccc(OC)c(OC)c2)C(C)C)cc1OC (centres unmarked) [Verapamil, verapamil] | – | – | – | – | – | – | – | – | – | no measurable effect | Concentration reducing the rate of Ca2+ oscillation (Cytiva hSCCMs [1]; [14]): > 10 µM

Continued, in another order:

Row | Effect on APD90 (action potential duration) (Cytiva hSCCMs [2]) | ETPCunbound [3] [nM] | Compound | EC20 AHI (Cytiva hSCCMs [1]; [7]) [µM] | EC20 Synch (Cytiva hSCCMs [1]; [8]) [µM] | EC20 ITN (Cytiva hSCCMs [1]; [9]) [µM] | EC20 THI (Cytiva hSCCMs [1]; [10]) [µM] | Predicted proarrhythmic score (PPS) (Cytiva hSCCMs [1]) | EC20 Rate (Cytiva hSCCMs [1]; [11]) [µM] | SALVO toxicity score, rank order of the extent of Ca2+ perturbation (Cytiva hSCCMs [1]; [12]) | Effect on Ca2+ handling (SALVO parameters) (Cytiva hSCCMs [1]; [13]) | other results
4 | no effect | 45 | Cc1onc(-c2ccccc2)c1-c1ccc(S(N)(=O)=O)cc1 [Valdecoxib, valdecoxib] | – | – | – | – | – | – | – | – | EC20 AHI (Cytiva hSCCMs [1]): 0.685 µM; EC20 ITN (Cytiva hSCCMs [1]): > 30 µM; EC20 Rate (Cytiva hSCCMs [1]): 9.87 µM; EC20 Synch (Cytiva hSCCMs [1]): > 30 µM; EC20 THI (Cytiva hSCCMs [1]): 12.8 µM; Effect on Ca2+ handling (SALVO parameters) (Cytiva hSCCMs [1]): large effect sizes in multiple parameters; PPS rank order (Cytiva hSCCMs [1]): thioridazine > cisapride > valdecoxib; SALVO toxicity score, rank order of the extent of Ca2+ perturbation (Cytiva hSCCMs [1]): astemizole > thioridazine > cisapride > flecainide > valdecoxib > sotalol > nadolol; ETPC ([4]; ref Yuan et al. (Drug Metab. Disp. (2002) 30:1013-1021)): 2.257 µM; Free drug [5]: 2%
5 | – | 14733 | CC(C)NCC(O)c1ccc(NS(C)(=O)=O)cc1 (centres unmarked) [Sotalol, sotalol] | 0.21 | > 30 | > 30 | > 30 | ~ 15 | > 30 | astemizole > thioridazine > cisapride > flecainide > valdecoxib > sotalol > nadolol | – | Concentration causing an isolated change in AHI (Cytiva hSCCMs [1]; [14]): > 1 µM; Effect on intercellular synchronization (Cytiva hSCCMs [1]; [14]): did not reduce the extent of intercellular synchronization; ETPCunbound ([3]; listed as sotalol): 14,733 nM; ETPC ([4]; ref Redfern et al. (2003) Cardiovasc. Res. 58:32-45): 14.733 µM; Therapeutic plasma concentration with QT-prolonging effects ([6]; reported, no reference given): exceeding 10 µM
